T/C data for 25 molecules are collected here from PubChem BioAssay AID330 (DTP/NCI, 2004).

This test deals with P388 leukemia ip, CD2F1 mice, survival T/C. As to the kind of experiment: NCI In Vivo Anticancer Drug Screen. Data for tumor model P388 Leukemia (intraperitoneal) in CD2F1 (CDF1) mice. The note with it: endpoint: median survival time, higher = longer survival. The gist of the method: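 Mice carrying the transplanted tumor received test compound or vehicle. Survival was recorded in each group, and the value is the treated-group measurement divided by that of the vehicle-treated control group.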

[1] abbreviates: dose: 50.0 mg/kg/injection, schedule: Q01DX005 (ip), vehicle: saline with Tween-80.
[2] abbreviates: dose: 100.0 mg/kg/injection, schedule: Q01DX005 (ip), vehicle: saline with Tween-80.
[3] abbreviates: dose: 200.0 mg/kg/injection, schedule: Q01DX005 (ip), vehicle: saline with Tween-80.
Setting [4] is: dose: 50.0 mg/kg/injection, schedule: Q01DX009 (ip), vehicle: saline.
[5] abbreviates: dose: 100.0 mg/kg/injection, schedule: Q01DX009 (ip), vehicle: saline.
Setting [6] is: dose: 200.0 mg/kg/injection, schedule: Q01DX009 (ip), vehicle: saline.
Setting [7] is: dose: 200.0 mg/kg/injection, schedule: Q04DX003 (ip), vehicle: saline with Tween-80.
Setting [8] is: dose: 400.0 mg/kg/injection, schedule: Q04DX003 (ip), vehicle: saline with Tween-80.
The mark [9] stands for this setting: dose: 50.0 mg/kg/injection, schedule: Q01DX005 (ip), vehicle: Klucel (hydroxypropylcellulose) (HPC).
Where [10] appears, read: dose: 100.0 mg/kg/injection, schedule: Q01DX005 (ip), vehicle: Klucel (hydroxypropylcellulose) (HPC).
Setting [11] is: dose: 200.0 mg/kg/injection, schedule: Q01DX005 (ip), vehicle: Klucel (hydroxypropylcellulose) (HPC).
[12] abbreviates: dose: 50.0 mg/kg/injection, schedule: Q01DX005 (ip), vehicle: saline.
Setting [13] is: dose: 100.0 mg/kg/injection, schedule: Q01DX005 (ip), vehicle: saline.

The structures appear in SMILES notation. Several values for one entry are separate records, joined by “and”; a condition that tells them apart may be missing. Equal entries are not always repeated. Inconclusive results and toxic doses are left out.

Consider `N#CC1(C#N)OC1(C#N)c1ccccc1` (stereo unspecified), for which the T/C reads like this: (dose: 3.0 mg/kg/injection, schedule: Q01DX009 (ip), vehicle: saline with Tween-80) 100 % of control; (dose: 6.0 mg/kg/injection, schedule: Q01DX009 (ip), vehicle: saline with Tween-80) 100 % of control; (dose: 12.0 mg/kg/injection, schedule: Q01DX009 (ip), vehicle: saline with Tween-80) 100 % of control.

Regarding `COc1ccc(C2=C(C#N)C(=O)OCCN2C)cc1`, the T/C by setting is: (dose: 60.0 mg/kg/injection, schedule: Q01DX005 (ip), vehicle: saline with Tween-80) 94 % of control; (dose: 120.0 mg/kg/injection, schedule: Q01DX005 (ip), vehicle: saline with Tween-80) 100 % of control; (dose: 240.0 mg/kg/injection, schedule: Q01DX005 (ip), vehicle: saline with Tween-80) 101 % of control.

In the case of `Nc1cc(N2C(=O)c3ccccc3C2=O)ccc1Cl`, the T/C is 109 % of control under setting [1], 109 % of control under setting [2] and 100 % of control under setting [3].

Consider `CCN(C/C=C/CN(CC)C(=S)Nc1ccccc1)C(=S)Nc1ccccc1`, for which the T/C is 106 % of control under setting [4], 108 % of control under setting [5] and 106 % of control under setting [6].

Regarding `O=C(Nc1ccc(Cl)c(Cl)c1)Oc1cccnc1`, the T/C (dose: 50.0 mg/kg/injection, schedule: Q01DX009 (ip), vehicle: saline with Tween-80) is 100 % of control and the T/C (dose: 100.0 mg/kg/injection, schedule: Q01DX009 (ip), vehicle: saline with Tween-80) is 105 % of control.

On to `CCOC(=O)Nc1cc(NC(=O)OCC)cc([N+](=O)[O-])c1`, for which the T/C (dose: 100.0 mg/kg/injection, schedule: Q04DX003 (ip), vehicle: saline with Tween-80) is 100 % of control; the T/C under setting [7] is 104 % of control; the T/C under setting [8] was 90 % of control.

`S=P(C1CCCCC1)(C1CCCCC1)C(c1cccnc1)N1CCCC1` (stereo unspecified): the T/C under setting [4] is 104 % of control, the T/C under setting [5] is 94 % of control and the T/C under setting [6] is 87 % of control.

Consider `COc1cc(/C=N\NC(=O)c2cccc(Cl)c2)ccc1N(CCCl)CCCl`, for which the T/C was 163 % of control under setting [7]; 154 % of control (dose: 264.0 mg/kg/injection, schedule: Q04DX003 (ip), vehicle: saline with Tween-80); 172 % of control and 195 % of control under setting [8]; 154 % of control (dose: 600.0 mg/kg/injection, schedule: Q04DX003 (ip), vehicle: saline with Tween-80).

With `CCCCN=NN(C)CCCC`, the T/C is 107 % of control (dose: 12.5 mg/kg/injection, schedule: Q01DX005 (ip), vehicle: saline with Tween-80) and 117 % of control (dose: 25.0 mg/kg/injection, schedule: Q01DX005 (ip), vehicle: saline with Tween-80).

As to `Cc1ccc2nc(N(C)C)cc(N(C)C)c2c1`, the T/C is, setting by setting: (dose: 6.25 mg/kg/injection, schedule: Q01DX009 (ip), vehicle: Klucel (hydroxypropylcellulose) (HPC)) 99 % of control; (dose: 12.5 mg/kg/injection, schedule: Q01DX009 (ip), vehicle: Klucel (hydroxypropylcellulose) (HPC)) 110 % of control; (dose: 25.0 mg/kg/injection, schedule: Q01DX009 (ip), vehicle: Klucel (hydroxypropylcellulose) (HPC)) 103 % of control.

In the case of `Cc1ccc(-c2cc(C(=O)NN)c(C#N)c(=O)[nH]2)cc1`, the T/C was 97 % of control (dose: 60.0 mg/kg/injection, schedule: Q01DX005 (ip), vehicle: suspension in saline); 100 % of control (dose: 120.0 mg/kg/injection, schedule: Q01DX005 (ip), vehicle: suspension in saline); 100 % of control (dose: 240.0 mg/kg/injection, schedule: Q01DX005 (ip), vehicle: suspension in saline).

Consider `COC1OC(COC(=O)c2ccccc2)C(=O)C(OC(=O)c2ccccc2)C1N(O)C1C(COC(=O)c2ccccc2)OC2OC(C)(C)OC21` (stereo unspecified), for which the T/C under setting [9] was 101 % of control, the T/C under setting [10] was 105 % of control and the T/C under setting [11] was 100 % of control.

On to `CN(C)C(=O)Cn1cc([N+](=O)[O-])sc1=NC(=O)c1ccncc1`, for which the T/C (dose: 100.0 mg/kg/injection, schedule: Q01DX001 (ip), vehicle: saline) was 93 % of control; the T/C (dose: 200.0 mg/kg/injection, schedule: Q01DX001 (ip), vehicle: saline) was 109 % of control; the T/C (dose: 400.0 mg/kg/injection, schedule: Q01DX001 (ip), vehicle: saline) is 105 % of control.

For `CC(=O)/C=C1/N(C)c2ccccc2C1(C)C`, the T/C is 100 % of control under setting [9], 100 % of control under setting [10] and 99 % of control under setting [11].

On to `CC(=O)OC(CC(=O)CC(O)(C(F)(F)F)C(F)(F)F)(C(F)(F)F)C(F)(F)F`, for which the T/C reads like this: (dose: 6.25 mg/kg/injection, schedule: Q04DX003 (ip), vehicle: saline) 104 % of control; (dose: 12.5 mg/kg/injection, schedule: Q04DX003 (ip), vehicle: saline) 90 % of control.

Consider `CCOC(=O)/C=C1\SC(C)(C)C1NC(=O)OCc1ccccc1` (stereo unspecified), for which the T/C is, setting by setting: (dose: 15.0 mg/kg/injection, schedule: Q01DX005 (ip), vehicle: Klucel (hydroxypropylcellulose) (HPC)) 94 % of control; (dose: 30.0 mg/kg/injection, schedule: Q01DX005 (ip), vehicle: Klucel (hydroxypropylcellulose) (HPC)) 103 % of control; (dose: 60.0 mg/kg/injection, schedule: Q01DX005 (ip), vehicle: Klucel (hydroxypropylcellulose) (HPC)) 91 % of control and 93 % of control.

As to `Cc1nnc2nc(N)[nH]n2c1=O`, the T/C is 95 % of control (dose: 25.0 mg/kg/injection, schedule: Q01DX005 (ip), vehicle: water); 98 % of control (dose: 50.0 mg/kg/injection, schedule: Q01DX005 (ip), vehicle: water); 93 % of control (dose: 100.0 mg/kg/injection, schedule: Q01DX005 (ip), vehicle: water).

For `CC1=C(c2ccccc2)OC(c2ccccc2)=C[P+]1(c1ccccc1)c1ccccc1`, the T/C reads like this: (dose: 1.56 mg/kg/injection, schedule: Q01DX005 (ip), vehicle: saline) 105 % of control; (dose: 3.12 mg/kg/injection, schedule: Q01DX005 (ip), vehicle: saline) 110 % of control.

Take `CC(NCCNC(C)c1cccnc1)c1cccnc1` (stereo unspecified): the T/C was 102 % of control under setting [12]; 110 % of control under setting [13]; 94 % of control (dose: 200.0 mg/kg/injection, schedule: Q01DX005 (ip), vehicle: saline).

Take `Cc1ccc(CCNC(=O)c2c3nc4c(C(=O)NCCc5ccc(C)cc5)cccc4oc-3cc(=O)c2N)cc1`: the T/C reads like this: under setting [1], 93 % of control; under setting [2], 87 % of control; under setting [3], 100 % of control.

Consider `CN(C)CCN(Cc1ccccc1)c1ccc2ccccc2n1`, for which the T/C is, setting by setting: (dose: 6.25 mg/kg/injection, schedule: Q01DX005 (ip), vehicle: Klucel (hydroxypropylcellulose) (HPC)) 97 % of control; (dose: 12.5 mg/kg/injection, schedule: Q01DX005 (ip), vehicle: Klucel (hydroxypropylcellulose) (HPC)) 97 % of control; (dose: 25.0 mg/kg/injection, schedule: Q01DX005 (ip), vehicle: Klucel (hydroxypropylcellulose) (HPC)) 99 % of control.

Take `O=[N+]([O-])C(CO)CCC(CO)[N+](=O)[O-]` (stereo unspecified): the T/C is 96 % of control (dose: 100.0 mg/kg/injection, schedule: Q04DX003 (ip), vehicle: Klucel (hydroxypropylcellulose) (HPC)); 98 % of control (dose: 200.0 mg/kg/injection, schedule: Q04DX003 (ip), vehicle: Klucel (hydroxypropylcellulose) (HPC)); 88 % of control (dose: 400.0 mg/kg/injection, schedule: Q04DX003 (ip), vehicle: Klucel (hydroxypropylcellulose) (HPC)).

For `CC1=CCCN(C)C1c1ccccc1` (stereo unspecified), the T/C is 99 % of control under setting [12] and 99 % of control under setting [13].

As to `CC(=O)n1c2ccccc2c2c(C)c3c[n+]([O-])ccc3c(C)c21`, the T/C (dose: 12.5 mg/kg/injection, schedule: Q04DX002 (ip), vehicle: saline with Tween-80) was 100 % of control; the T/C (dose: 25.0 mg/kg/injection, schedule: Q04DX002 (ip), vehicle: saline with Tween-80) was 110 % of control; the T/C (dose: 50.0 mg/kg/injection, schedule: Q04DX002 (ip), vehicle: saline with Tween-80) was 122 % of control; the T/C (dose: 200.0 mg/kg/injection, schedule: Q04DX002 (ip), vehicle: saline with Tween-80) was 93 % of control.

In the case of `C[n+]1ccc2c([N+](=O)[O-])cccc2c1`, the T/C runs as follows: (dose: 6.25 mg/kg/injection, schedule: Q01DX005 (ip), vehicle: saline) 103 % of control; (dose: 12.5 mg/kg/injection, schedule: Q01DX005 (ip), vehicle: saline) 112 % of control.
